This is an account of results in patent publication US9227971B2, “Pyrazolo[1,5-a]pyrimidine compounds as mTOR inhibitors” (Merck Sharp & Dohme Corp., priority 2010, dated 2016).

The subject of experiment [1] is phosphorylated AKT Ser473 (pAKT S473), mTORC2 activity, PC3 cells. In words: mTOR target engagement assay, immunofluorescent cell-based, pAKT S473 readout (mTORC2 activity). The conditions noted are these: Homo sapiens. Summed up:
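After blocking, cells were stained overnight at 4 °C with anti-pAKT S473 antibody, then a fluorescent secondary; inhibition was read as reduced fluorescence intensity.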

Experiment [2] deals with phosphorylated 4E-BP1 Thr37/46 (p4E-BP1 Thr37/46), mTORC1 activity, PC3 cells. In words: mTOR target engagement assay, immunofluorescent cell-based, p4E-BP1 Thr37/46 readout (mTORC1 activity). The conditions noted are these: Homo sapiens, read-out: p4E-BP1 Thr37/46 IC50. Summed up:
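Read-out is fluorescence intensity of immunostained p4E-BP1 Thr37/46 in fixed PC3 cells, fitted to a logistic curve for IC50 with DMSO-only wells as top. Cells had been exposed to serial compound dilutions for ninety minutes at 37° C in 5% FBS medium with 0.25% DMSO.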

The mark [3] stands for this setting: PC-3, PC3 cells, compound treatment ninety minutes at 37° C.

Like-named read-outs stand apart in the source and are kept apart here.

For `COc1c(F)cc(-c2ccc(-c3cnn4c(N)c(S(C)(=O)=O)c([C@@H]5C[C@H]6CC[C@@H](C5)N6C(=O)c5nnc[nH]5)nc34)cn2)cc1F` [Compound 3.49, ((1R,3s,5S)-3-(7-amino-3-(6-(3,5-difluoro-4-methoxyphenyl)pyridin-3-yl)-6-(methylsulfonyl)pyrazolo[1,5-a]pyrimidin-5-yl)-8-azabicyclo[3.2.1]octan-8-yl)(4H-1,2,4-triazol-3-yl)methanone], the IC50 lay in the range of 100 to 1000 nM in experiment [1] (PC-3, Table 3-1, PC3 cells) and 100 to 1000 nM in experiment [2] (PC-3, Table 3-1, PC3 cells).
On to `CC(=O)c1c([C@@H]2C[C@H]3CC[C@@H](C2)N3C(N)=O)nc2c(-c3ccc(-c4ccccc4F)nc3)cnn2c1N` [Compound 1.1.174, (1R,3s,5S)-3-(6-acetyl-7-amino-3-(6-(2-fluorophenyl)pyridin-3-yl)pyrazolo[1,5-a]pyrimidin-5-yl)-8-azabicyclo[3.2.1]octane-8-carboxamide], for which the IC50 in experiment [1] (setting [3]) and in experiment [2] (setting [3]) was 1 to 100 nM in each case.
For the compound `CC(=O)c1c([C@@H]2C[C@H]3CC[C@@H](C2)N3C(=O)c2nnc[nH]2)nc2c(-c3ccc(N4NCCC4=O)nc3)cnn2c1N` [Compound 8.19, 2-(5-(5-((1R,3s,5S)-8-(4H-1,2,4-triazole-3-carbonyl)-8-azabicyclo[3.2.1]octan-3-yl)-6-acetyl-7-aminopyrazolo[1,5-a]pyrimidin-3-yl)pyridin-2-yl)pyrazolidin-3-one], the IC50 is 100 to 1000 nM in experiment [1] (PC-3, PC3 cells) and 100 to 1000 nM in experiment [2] (PC-3, PC3 cells).
Turning to `CC(=O)c1c([C@@H]2C[C@H]3CC[C@@H](C2)N3C(=O)c2nnc[nH]2)nc2c(-c3ccc(-c4ncc[nH]4)c(F)c3)cnn2c1N` [Compound 6.41, 1-(5-((1R,3s,5S)-8-(4H-1,2,4-triazole-3-carbonyl)-8-azabicyclo[3.2.1]octan-3-yl)-7-amino-3-(3-fluoro-4-(1H-imidazol-2-yl)phenyl)pyrazolo[1,5-a]pyrimidin-6-yl)ethanone], the IC50 in experiment [1] (PC-3, Table 6-1, PC3 cells) fell in the range of 1 to 100 nM; in experiment [2] (PC-3, Table 6-1, PC3 cells) it was 1 to 100 nM.
Consider `Cc1cnc(-c2ccc(-c3cnn4c(N)c(S(C)(=O)=O)c([C@@H]5C[C@H]6CC[C@@H](C5)N6C(=O)C(N)C(F)(F)F)nc34)cn2)s1` (stereo partly drawn) [Compound 3.188, 2-amino-1-((1R,3s,5S)-3-(7-amino-6-(methylsulfonyl)-3-(6-(5-methylthiazol-2-yl)pyridin-3-yl)pyrazolo[1,5-a]pyrimidin-5-yl)-8-azabicyclo[3.2.1]octan-8-yl)-3,3,3-trifluoropropan-1-one], for which the IC50 in experiment [1] (PC-3, Table 3-1, PC3 cells) is 1000 to 10000 nM; in experiment [2] (PC-3, Table 3-1, PC3 cells), 1000 to 10000 nM.
As to `CCOc1ccc(-c2ccc(-c3cnn4c(N)c(C5CC5)c([C@@H]5C[C@H]6CC[C@@H](C5)N6C(=O)c5nnc[nH]5)nc34)cn2)cc1` [Compound 4.13, ((1R,3s,5S)-3-(7-amino-6-cyclopropyl-3-(6-(4-ethoxyphenyl)pyridin-3-yl)pyrazolo[1,5-a]pyrimidin-5-yl)-8-azabicyclo[3.2.1]octan-8-yl)(4H-1,2,4-triazol-3-yl)methanone], the IC50 in experiment [1] (setting [3]) and in experiment [2] (setting [3]) was 100 to 1000 nM throughout.
Turning to `CC(=O)c1c([C@@H]2C[C@H]3CC[C@@H](C2)N3C(=O)[C@@H](C)O)nc2c(-c3ccc(-c4ccc(F)cc4F)nc3)cnn2c1N` [Compound 1.1.168, (R)-1-((1R,3S,5S)-3-(6-acetyl-7-amino-3-(6-(2,4-difluorophenyl)pyridin-3-yl)pyrazolo[1,5-a]pyrimidin-5-yl)-8-azabicyclo[3.2.1]octan-8-yl)-2-hydroxypropan-1-one], the IC50 in experiment [1] (setting [3]) and in experiment [2] (setting [3]) was 100 to 1000 nM each time.
Turning to `Nc1c(C2CC2)c([C@@]2(O)C[C@H]3CC[C@@H](C2)N3C(=O)c2nnc[nH]2)nc2c(-c3ccc(-c4ccccc4)nc3)cnn12` [Compound 8.25, ((1R,3s,5S)-3-(7-amino-6-cyclopropyl-3-(6-phenylpyridin-3-yl)pyrazolo[1,5-a]pyrimidin-5-yl)-3-hydroxy-8-azabicyclo[3.2.1]octan-8-yl)(4H-1,2,4-triazol-3-yl)methanone], the IC50 fell in the range of 100 to 1000 nM in experiment [1] (PC-3, PC3 cells) and 1000 to 10000 nM in experiment [2] (PC-3, PC3 cells).
